{
  "source": "patent US20160228670A1",
  "about": "“SYSTEM FOR NITRIC OXIDE INHALATION” (ADVANCED […] (AIT) LTD., priority 2013, published 2016)",
  "origin": "cited, not measured here",
  "note": "Where two headings read alike, the source gives them in different places.",
  "data": [
    {"smiles": "[N]=O", "note": "[NO, nitric oxide]", "values": [
      {"measurement": "t1/2 of NO to NO2", "setting": "NO concentration in air 1 ppm", "result": 3500, "unit": "min"},
      {"measurement": "t1/2 of NO to NO2", "setting": "NO concentration in air 10 ppm", "result": 350, "unit": "min"},
      {"measurement": "t1/2 of NO to NO2", "setting": "NO concentration in air 100 ppm", "result": 35, "unit": "min"},
      {"measurement": "t1/2 of NO to NO2", "setting": "NO concentration in air 1,000 ppm", "result": 3.5, "unit": "min"},
      {"measurement": "t1/2 of NO to NO2", "setting": "NO concentration in air 10,000 ppm", "result": 0.35, "unit": "min"},
      {"measurement": "t1/2 of NO to NO2", "setting": "NO concentration in air 20,000 ppm", "result": 0.175, "unit": "min"}
    ]}
  ]
}
